# Experimental data from publication doi:10.1101/2021.04.08.439011v1 (biorxiv, 2021).
# Like-named read-outs stand apart in the source and are kept apart here.
# How the values were obtained:
# [1] = target: MYLK2 (Homo sapiens, UniProt Q9H1R3); settings: 0.1 µM; binder
# [2] = target: FER (Homo sapiens, UniProt P16591); settings: 0.1 µM; binder
# [3] = target: BRSK1 (Homo sapiens, UniProt Q8TDC3); settings: 0.1 µM; binder
# [4] = target: ERBB3 (Homo sapiens, UniProt P21860); settings: 0.1 µM; binder
# [5] = target: EGFR(G719C) (Homo sapiens, UniProt P00533, G719C); settings: 0.1 µM; binder
# [6] = target: AXL (Homo sapiens, UniProt P30530); settings: 0.1 µM; binder
# [7] = target: ROCK1 (Homo sapiens, UniProt Q13464); settings: 0.1 µM; binder
# [8] = target: T1, YANK3 (Homo sapiens, UniProt Q86UX6); settings: 0.1 µM; binder
# [9] = target: STK36 (Homo sapiens, UniProt Q9NRP7); settings: 0.1 µM; binder
# [10] = target: PIP4K2B (Homo sapiens, UniProt P78356); settings: 0.1 µM; binder
# [11] = target: JAK1(JH1domain-catalytic) (Homo sapiens, UniProt P23458); settings: 0.1 µM; binder
# [12] = target: IRAK4 (Homo sapiens, UniProt Q9NWZ3); settings: 1 µM; binder
# [13] = target: FLT3(K663Q) (Homo sapiens, UniProt P36888, K663Q); settings: 1 µM; binder
# [14] = target: MET (Homo sapiens, UniProt P08581); settings: 1 µM; binder
# [15] = target: CLK3 (Homo sapiens, UniProt P49761); settings: 1 µM; binder
# [16] = target: FLT3-autoinhibited (Homo sapiens, UniProt P36888); settings: 1 µM; binder
# [17] = target: PYK2 (Homo sapiens, UniProt Q14289); settings: 1 µM; binder
# [18] = target: AKT3 (Homo sapiens, UniProt Q9Y243); settings: 1 µM; binder
# [19] = target: MARK3 (Homo sapiens, UniProt P27448); settings: 1 µM; binder
# [20] = target: IRAK1 (Homo sapiens, UniProt P51617); settings: 1 µM; binder
# [21] = target: EPHA5 (Homo sapiens, UniProt P54756); settings: 1 µM; binder
# [22] = target: KIT(D816H) (Homo sapiens, UniProt P10721, D816H); settings: 1 µM; binder
# [23] = target: PAK6 (Homo sapiens, UniProt Q9NQU5); settings: 1 µM; binder
# [24] = target: CSNK1G3 (Homo sapiens, UniProt Q9Y6M4); settings: 1 µM; binder
# [25] = target: FLT3(ITD,F691L) (Homo sapiens, UniProt P36888, F691L/ITD); settings: 1 µM; binder
# [26] = target: T1, YANK3; settings: 1 µM; binder
# [27] = target: IKK-epsilon (Homo sapiens, UniProt Q14164); settings: 1 µM; binder
# [28] = target: ASK2 (Homo sapiens, UniProt O95382); settings: 1 µM; binder
# [29] = target: WNK2 (Homo sapiens, UniProt Q9Y3S1); settings: 1 µM; binder
# [30] = target: CDK4-cyclinD1 (Homo sapiens, UniProt P11802); settings: 0.1 µM; binder
# CDK4-cyclinD1, sequence (P11802 whole entry): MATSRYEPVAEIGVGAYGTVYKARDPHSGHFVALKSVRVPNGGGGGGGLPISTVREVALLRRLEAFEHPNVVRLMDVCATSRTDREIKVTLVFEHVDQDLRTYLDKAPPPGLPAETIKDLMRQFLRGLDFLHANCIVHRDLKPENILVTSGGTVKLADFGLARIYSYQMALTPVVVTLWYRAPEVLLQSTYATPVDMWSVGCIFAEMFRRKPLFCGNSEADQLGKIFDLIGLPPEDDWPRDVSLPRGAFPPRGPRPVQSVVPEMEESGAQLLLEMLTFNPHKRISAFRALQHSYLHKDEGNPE
# CDK4-cyclinD1, sequence (P24385 whole entry partner): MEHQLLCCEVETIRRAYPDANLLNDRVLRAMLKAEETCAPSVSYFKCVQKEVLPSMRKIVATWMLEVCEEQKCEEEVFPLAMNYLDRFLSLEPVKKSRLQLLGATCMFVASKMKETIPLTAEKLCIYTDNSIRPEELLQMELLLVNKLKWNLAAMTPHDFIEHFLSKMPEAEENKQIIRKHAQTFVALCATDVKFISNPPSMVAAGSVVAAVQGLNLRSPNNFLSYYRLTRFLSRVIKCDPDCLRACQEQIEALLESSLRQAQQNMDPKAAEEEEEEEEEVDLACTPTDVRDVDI
# T1 sequence (Q86UX6 whole entry): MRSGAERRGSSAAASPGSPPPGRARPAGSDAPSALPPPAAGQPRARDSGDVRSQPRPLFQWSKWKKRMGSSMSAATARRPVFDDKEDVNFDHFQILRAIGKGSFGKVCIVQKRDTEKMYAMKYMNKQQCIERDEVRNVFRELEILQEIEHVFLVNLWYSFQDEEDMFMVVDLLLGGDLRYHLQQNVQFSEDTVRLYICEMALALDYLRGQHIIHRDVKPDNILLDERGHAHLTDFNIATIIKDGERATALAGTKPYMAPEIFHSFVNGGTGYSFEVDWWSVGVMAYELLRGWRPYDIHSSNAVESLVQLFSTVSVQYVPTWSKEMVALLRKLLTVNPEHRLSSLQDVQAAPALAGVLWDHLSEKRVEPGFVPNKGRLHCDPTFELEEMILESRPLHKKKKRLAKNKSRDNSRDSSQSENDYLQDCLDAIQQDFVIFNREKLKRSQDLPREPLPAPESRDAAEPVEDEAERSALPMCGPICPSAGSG
# PIP4K2B, sequence (P78356 whole entry): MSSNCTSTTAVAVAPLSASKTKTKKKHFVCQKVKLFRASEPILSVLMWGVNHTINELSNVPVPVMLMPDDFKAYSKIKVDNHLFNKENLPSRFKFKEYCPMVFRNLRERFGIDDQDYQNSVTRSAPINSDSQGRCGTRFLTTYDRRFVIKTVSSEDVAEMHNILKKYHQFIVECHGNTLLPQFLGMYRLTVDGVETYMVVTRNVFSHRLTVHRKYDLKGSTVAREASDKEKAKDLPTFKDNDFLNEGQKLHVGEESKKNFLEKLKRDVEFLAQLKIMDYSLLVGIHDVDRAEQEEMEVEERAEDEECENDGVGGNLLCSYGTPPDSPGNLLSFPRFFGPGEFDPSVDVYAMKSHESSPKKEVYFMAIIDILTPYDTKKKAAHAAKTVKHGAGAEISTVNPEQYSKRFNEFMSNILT
# ASK2, sequence (O95382 whole entry): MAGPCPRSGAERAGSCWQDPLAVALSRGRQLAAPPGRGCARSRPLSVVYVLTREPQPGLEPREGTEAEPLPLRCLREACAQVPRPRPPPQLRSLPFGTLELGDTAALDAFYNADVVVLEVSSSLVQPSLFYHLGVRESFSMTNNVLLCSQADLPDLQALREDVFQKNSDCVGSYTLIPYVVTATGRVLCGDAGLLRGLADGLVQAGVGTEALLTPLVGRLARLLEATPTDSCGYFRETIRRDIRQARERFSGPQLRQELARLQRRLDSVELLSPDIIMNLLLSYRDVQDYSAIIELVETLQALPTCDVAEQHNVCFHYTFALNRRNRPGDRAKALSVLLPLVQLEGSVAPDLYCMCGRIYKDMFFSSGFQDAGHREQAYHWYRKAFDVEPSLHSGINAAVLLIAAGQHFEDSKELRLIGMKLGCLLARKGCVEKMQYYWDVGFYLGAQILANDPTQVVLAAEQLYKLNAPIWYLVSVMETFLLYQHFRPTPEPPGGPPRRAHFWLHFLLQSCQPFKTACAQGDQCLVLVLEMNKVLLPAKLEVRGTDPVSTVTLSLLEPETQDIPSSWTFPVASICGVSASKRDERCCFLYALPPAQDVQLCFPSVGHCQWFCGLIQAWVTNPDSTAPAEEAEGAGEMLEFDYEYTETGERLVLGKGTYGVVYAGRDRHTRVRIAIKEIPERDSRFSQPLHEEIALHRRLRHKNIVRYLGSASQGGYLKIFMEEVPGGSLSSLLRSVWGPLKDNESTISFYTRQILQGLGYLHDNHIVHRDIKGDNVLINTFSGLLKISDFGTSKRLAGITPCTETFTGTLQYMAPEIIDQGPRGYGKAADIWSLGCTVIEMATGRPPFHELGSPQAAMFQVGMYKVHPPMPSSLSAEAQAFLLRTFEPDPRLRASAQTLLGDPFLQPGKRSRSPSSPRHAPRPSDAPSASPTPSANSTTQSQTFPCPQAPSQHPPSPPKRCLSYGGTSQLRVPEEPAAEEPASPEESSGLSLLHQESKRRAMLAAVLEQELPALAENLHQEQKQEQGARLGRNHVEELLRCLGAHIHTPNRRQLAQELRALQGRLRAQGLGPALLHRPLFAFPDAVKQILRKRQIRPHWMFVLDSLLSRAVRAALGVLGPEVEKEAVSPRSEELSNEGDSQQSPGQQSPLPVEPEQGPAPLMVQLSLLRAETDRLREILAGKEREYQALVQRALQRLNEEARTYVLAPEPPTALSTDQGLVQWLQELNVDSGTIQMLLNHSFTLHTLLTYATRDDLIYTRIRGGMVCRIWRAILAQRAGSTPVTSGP
# STK36, sequence (Q9NRP7 whole entry): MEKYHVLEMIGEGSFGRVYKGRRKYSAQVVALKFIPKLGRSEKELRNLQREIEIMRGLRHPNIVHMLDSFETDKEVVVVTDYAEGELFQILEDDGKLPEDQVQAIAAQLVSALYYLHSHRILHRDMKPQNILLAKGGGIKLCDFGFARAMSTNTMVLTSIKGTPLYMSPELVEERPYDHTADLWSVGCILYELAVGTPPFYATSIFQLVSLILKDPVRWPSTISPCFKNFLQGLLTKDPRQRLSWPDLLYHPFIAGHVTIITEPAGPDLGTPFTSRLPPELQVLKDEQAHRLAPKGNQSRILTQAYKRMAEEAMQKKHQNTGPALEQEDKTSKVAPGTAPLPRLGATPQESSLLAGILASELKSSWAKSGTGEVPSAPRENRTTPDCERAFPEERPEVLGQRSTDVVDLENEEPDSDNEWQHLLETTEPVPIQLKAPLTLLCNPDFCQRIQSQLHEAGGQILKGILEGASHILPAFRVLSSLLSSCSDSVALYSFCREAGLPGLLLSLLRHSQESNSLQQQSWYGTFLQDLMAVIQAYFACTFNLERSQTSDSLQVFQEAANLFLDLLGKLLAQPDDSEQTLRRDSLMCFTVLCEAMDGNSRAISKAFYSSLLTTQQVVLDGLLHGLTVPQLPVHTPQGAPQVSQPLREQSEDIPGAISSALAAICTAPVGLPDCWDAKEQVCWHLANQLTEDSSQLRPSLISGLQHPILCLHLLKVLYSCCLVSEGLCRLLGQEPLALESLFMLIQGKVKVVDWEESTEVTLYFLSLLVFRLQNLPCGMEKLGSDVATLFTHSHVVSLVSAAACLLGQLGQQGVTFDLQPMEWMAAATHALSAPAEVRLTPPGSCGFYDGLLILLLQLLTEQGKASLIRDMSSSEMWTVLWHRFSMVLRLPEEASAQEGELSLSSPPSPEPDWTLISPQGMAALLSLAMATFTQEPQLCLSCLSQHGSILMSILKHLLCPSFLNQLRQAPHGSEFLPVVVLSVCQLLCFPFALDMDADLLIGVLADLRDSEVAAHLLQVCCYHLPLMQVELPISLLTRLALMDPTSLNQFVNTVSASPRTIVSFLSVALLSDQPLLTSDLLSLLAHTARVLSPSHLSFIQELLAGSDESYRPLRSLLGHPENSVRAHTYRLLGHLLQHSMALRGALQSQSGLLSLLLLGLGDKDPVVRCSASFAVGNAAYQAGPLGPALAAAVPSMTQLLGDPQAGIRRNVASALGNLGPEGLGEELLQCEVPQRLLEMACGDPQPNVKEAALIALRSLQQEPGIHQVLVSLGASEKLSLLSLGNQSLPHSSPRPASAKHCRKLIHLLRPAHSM
# BRSK1, sequence (Q8TDC3 whole entry): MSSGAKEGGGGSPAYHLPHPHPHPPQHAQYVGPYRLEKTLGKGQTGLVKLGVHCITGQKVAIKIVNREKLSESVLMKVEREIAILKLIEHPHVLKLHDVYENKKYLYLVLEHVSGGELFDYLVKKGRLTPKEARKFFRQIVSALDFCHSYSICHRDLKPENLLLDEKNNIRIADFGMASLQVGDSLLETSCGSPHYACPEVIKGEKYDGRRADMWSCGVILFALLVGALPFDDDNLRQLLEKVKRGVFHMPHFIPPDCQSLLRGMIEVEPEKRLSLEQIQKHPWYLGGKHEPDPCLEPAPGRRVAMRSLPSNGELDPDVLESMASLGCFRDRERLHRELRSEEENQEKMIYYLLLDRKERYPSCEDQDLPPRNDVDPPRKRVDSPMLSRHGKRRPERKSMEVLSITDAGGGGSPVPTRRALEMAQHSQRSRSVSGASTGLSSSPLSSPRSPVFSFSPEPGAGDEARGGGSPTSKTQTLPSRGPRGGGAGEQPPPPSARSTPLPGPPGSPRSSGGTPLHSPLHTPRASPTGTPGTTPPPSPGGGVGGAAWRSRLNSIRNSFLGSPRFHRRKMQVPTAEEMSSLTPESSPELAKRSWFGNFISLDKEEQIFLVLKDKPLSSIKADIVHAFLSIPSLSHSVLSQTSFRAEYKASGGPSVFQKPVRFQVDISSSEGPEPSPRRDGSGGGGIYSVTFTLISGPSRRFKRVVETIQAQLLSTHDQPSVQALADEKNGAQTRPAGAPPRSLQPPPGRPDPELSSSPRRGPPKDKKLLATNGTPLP
smiles,measurement,setting,value
"CNc1ncc2cc(-c3ccc(-c4cccc(C)n4)cc3Cl)c(=O)n(C[C@H]3OC[C@H](N)CO3)c2n1 [compound 6, G-5555]",Percent Control,[1],93%
same,Percent Control,[2],100%
same,Percent Control,[3],100%
same,Percent Control,[4],77%
same,Percent Control,[5],100%
same,Percent Control,[6],100%
same,Percent Control,[7],83%
same,Percent Control,[8],99%
same,Percent Control,[9],36%
same,Percent Control,[10],68%
same,Percent Control,[11],100%
same,Percent Control,[12],95%
same,Percent Control,[13],100%
same,Percent Control,[14],40%
same,Percent Control,[15],100%
same,Percent Control,[16],100%
same,Percent Control,[17],100%
same,Percent Control,[18],48%
same,Percent Control,[19],18%
same,Percent Control,[20],49%
same,Percent Control,[21],100%
same,Percent Control,[22],100%
same,Percent Control,[23],45%
same,Percent Control,[24],100%
same,Percent Control,[25],43%
same,Percent Control,[26],79%
same,Percent Control,[27],78%
same,Percent Control,[28],70%
same,Percent Control,[29],88%
same,Percent Control,[30],100%
